Test results published in ChEMBL document CHEMBL5665443, “Enzyme Inhibitor Single Concentration assay results for EUbOPEN Chemogenomics Library” (2024).
Several values for one entry are separate records, joined by “and”; a condition that tells them apart may be missing. Equal values may be shown once.

Experiments:
[1] = biological target: Endonuclease 8-like 1 (Homo sapiens) (UniProt Q96FI4); details: Hit No;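 also: fluorescence at 594 nm from quenched duplex DNA oligonucleotides released by NEIL1 cleavage and strand separation, reported as reduction of this enzyme activity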
Description: Inhibition of NEIL1 by quantifying inhibition of NEIL1-mediated cleavage and dissociation of quenched duplex DNA oligonucleotides, measured as fluorescence at 594 nm.

[2] = biological target: T1, Endonuclease 8-like 2 (Homo sapiens) (UniProt Q969S2); details: Hit No;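 also: fluorescence at 594 nm reports NEIL2 cutting and release of a quenched double-stranded DNA oligo substrate, reduced signal read as inhibition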
T1 sequence (whole entry): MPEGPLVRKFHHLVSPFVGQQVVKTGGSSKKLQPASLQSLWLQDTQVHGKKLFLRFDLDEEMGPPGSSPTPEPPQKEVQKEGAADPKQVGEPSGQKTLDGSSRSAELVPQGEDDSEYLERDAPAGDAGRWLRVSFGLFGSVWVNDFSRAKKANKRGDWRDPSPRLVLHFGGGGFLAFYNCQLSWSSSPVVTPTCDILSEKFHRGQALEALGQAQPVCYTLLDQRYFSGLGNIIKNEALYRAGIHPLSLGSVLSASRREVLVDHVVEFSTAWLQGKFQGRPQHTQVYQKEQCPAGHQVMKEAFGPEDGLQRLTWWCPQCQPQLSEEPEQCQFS
Description: Inhibition of NEIL2 by quantifying inhibition of NEIL2-mediated cleavage and dissociation of quenched duplex DNA oligonucleotides, measured as fluorescence at 594 nm.

[3] = biological target: T2, Endonuclease III-like protein 1 (Homo sapiens) (UniProt P78549); details: Hit No;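 also: enzyme assay tracking NTHL1 cutting and release of a quenched double-stranded DNA oligo substrate, read as fluorescence at 594 nm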
T2 sequence (whole entry): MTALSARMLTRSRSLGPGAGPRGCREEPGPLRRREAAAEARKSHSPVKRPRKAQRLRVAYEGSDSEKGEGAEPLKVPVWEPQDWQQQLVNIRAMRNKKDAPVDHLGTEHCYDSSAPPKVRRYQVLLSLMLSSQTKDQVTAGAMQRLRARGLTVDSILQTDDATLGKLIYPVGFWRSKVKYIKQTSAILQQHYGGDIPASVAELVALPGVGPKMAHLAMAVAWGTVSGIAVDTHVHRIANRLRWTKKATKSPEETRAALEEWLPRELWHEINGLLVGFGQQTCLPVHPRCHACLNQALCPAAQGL
Description: Inhibition of NTHL1 by quantifying inhibition of NTHL1-mediated cleavage and dissociation of quenched duplex DNA oligonucleotides, measured as fluorescence at 594 nm.

[4] = biological target: N-glycosylase/DNA lyase (Homo sapiens) (UniProt O15527); details: Hit No;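 also: OGG1 cleavage of a quenched duplex DNA oligonucleotide, coupled to APE1 for strand incision, read as fluorescence at 594 nm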
Description: Inhibition of OGG1 by quantifying inhibition of OGG1-mediated cleavage and dissociation of quenched duplex DNA oligonucleotides, measured as fluorescence at 594 nm. To generate a functional strand incision and increase turn-over this assay is coupled to APE1.

[5] = biological target: T3, Single-strand selective monofunctional uracil DNA glycosylase (Homo sapiens) (UniProt Q53HV7); details: Hit No;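 also: enzymatic SMUG1 assay coupled with APE1, reading fluorescence at 594 nm released when a quenched double-stranded DNA oligonucleotide substrate is cleaved and separated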
T3 sequence (whole entry): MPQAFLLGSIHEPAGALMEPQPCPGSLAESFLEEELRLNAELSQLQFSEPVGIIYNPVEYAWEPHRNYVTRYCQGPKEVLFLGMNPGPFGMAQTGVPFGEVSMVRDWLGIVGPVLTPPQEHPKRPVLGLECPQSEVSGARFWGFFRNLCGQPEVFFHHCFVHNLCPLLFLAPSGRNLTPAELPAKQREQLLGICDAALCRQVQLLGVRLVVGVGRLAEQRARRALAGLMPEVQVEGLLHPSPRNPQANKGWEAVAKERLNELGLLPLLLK
Description: Inhibition of SMUG1 by quantifying inhibition of SMUG1-mediated cleavage and dissociation of quenched duplex DNA oligonucleotides, measured as fluorescence at 594 nm. To generate a functional strand incision and increase turn-over this assay is coupled to APE1.

[6] = biological target: G/T mismatch-specific thymine DNA glycosylase (Homo sapiens) (UniProt Q13569); details: Compound Concentration 10.0 uM, Hit No;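 also: human TDG cleavage of quenched duplex DNA oligonucleotides coupled to APE1, strand release read as fluorescence at 594 nm, inhibition of TDG activity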
Description: Inhibition of TDG by quantifying inhibition of TDG-mediated cleavage and dissociation of quenched duplex DNA oligonucleotides, measured as fluorescence at 594 nm. To generate a functional strand incision and increase turn-over this assay is coupled to APE1.

[7] = biological target: Uracil-DNA glycosylase (Homo sapiens) (UniProt P13051); details: Hit No;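 also: UNG excision on a quenched double-stranded DNA oligo probe, with APE1 added for strand incision and turnover, read as fluorescence at 594 nm as strands separate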
Sequence of Uracil-DNA glycosylase (Homo sapiens) (P13051 whole entry): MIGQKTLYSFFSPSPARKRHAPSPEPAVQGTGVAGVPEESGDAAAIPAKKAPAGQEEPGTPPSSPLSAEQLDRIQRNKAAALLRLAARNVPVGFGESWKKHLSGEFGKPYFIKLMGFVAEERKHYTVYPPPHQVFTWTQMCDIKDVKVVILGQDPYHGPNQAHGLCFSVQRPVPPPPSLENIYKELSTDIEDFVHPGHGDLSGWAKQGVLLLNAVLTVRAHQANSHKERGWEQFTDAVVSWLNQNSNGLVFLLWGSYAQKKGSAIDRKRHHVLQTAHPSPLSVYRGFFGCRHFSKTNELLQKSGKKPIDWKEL
Description: Inhibition of UNG by quantifying inhibition of UNG-mediated cleavage and dissociation of quenched duplex DNA oligonucleotides, measured as fluorescence at 594 nm. To generate a functional strand incision and increase turn-over this assay is coupled to APE1.

Sequence of N-glycosylase/DNA lyase (Homo sapiens) (O15527 whole entry): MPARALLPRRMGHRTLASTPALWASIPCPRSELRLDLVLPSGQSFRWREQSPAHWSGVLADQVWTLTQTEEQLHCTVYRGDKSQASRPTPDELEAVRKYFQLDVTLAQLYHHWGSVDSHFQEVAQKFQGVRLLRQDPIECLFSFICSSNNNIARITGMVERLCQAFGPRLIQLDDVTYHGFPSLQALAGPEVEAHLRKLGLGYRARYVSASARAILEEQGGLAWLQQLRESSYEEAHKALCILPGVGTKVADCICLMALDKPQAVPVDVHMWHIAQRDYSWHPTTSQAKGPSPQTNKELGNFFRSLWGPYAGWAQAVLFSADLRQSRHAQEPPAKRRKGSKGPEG
Sequence of G/T mismatch-specific thymine DNA glycosylase (Homo sapiens) (Q13569 whole entry): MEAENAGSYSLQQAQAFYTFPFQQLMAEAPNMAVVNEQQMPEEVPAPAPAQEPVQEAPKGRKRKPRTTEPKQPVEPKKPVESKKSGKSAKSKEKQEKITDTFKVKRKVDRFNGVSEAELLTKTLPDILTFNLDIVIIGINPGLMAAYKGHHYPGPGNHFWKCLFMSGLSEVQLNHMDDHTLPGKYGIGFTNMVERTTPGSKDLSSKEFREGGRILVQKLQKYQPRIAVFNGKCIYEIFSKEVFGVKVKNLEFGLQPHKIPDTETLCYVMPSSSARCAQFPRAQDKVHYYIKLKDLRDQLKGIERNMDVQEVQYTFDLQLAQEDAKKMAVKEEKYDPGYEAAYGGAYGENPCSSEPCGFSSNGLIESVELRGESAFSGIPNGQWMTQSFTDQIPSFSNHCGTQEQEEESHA
Sequence of Endonuclease 8-like 1 (Homo sapiens) (Q96FI4 whole entry): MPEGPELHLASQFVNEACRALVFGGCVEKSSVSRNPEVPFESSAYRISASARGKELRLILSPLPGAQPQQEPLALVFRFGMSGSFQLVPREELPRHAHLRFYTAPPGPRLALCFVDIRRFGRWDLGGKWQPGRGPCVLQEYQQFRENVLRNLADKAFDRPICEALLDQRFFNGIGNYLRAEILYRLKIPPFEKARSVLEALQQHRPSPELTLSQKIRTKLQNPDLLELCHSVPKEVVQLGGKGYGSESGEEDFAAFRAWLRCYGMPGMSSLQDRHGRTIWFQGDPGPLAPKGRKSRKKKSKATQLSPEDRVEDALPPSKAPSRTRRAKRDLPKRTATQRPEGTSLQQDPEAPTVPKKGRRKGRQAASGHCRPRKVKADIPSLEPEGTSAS

Row | Structure (SMILES) | inhibition ([1]; Compound Concentration 10.0 uM) | inhibition ([2]; Compound Concentration 10.0 uM) | inhibition ([3]; Compound Concentration 10.0 uM) | inhibition ([4]; Compound Concentration 10.0 uM) | inhibition ([5]; Compound Concentration 10.0 uM) | inhibition [6] | inhibition ([7]; Compound Concentration 10.0 uM) | inhibition ([1]; Compound Concentration 1.0 uM) | inhibition ([2]; Compound Concentration 1.0 uM) | inhibition ([3]; Compound Concentration 1.0 uM) | inhibition ([4]; Compound Concentration 1.0 uM) | inhibition ([5]; Compound Concentration 1.0 uM) | inhibition ([7]; Compound Concentration 1.0 uM)
1 | CN1C[C@H](C(=O)N[C@]2(C)O[C@@]3(O)[C@@H]4CCCN4C(=O)[C@H](Cc4ccccc4)N3C2=O)C[C@@H]2c3cccc4[nH]cc(c34)C[C@H]21 | 9.88% | 7% | 15.8% | -8.52% | 0.306% | 7.37% | -3.4% | – | – | – | – | – | –
2 | O=C1O[C@]2(CC[C@H](C(=O)Nc3ccn(-c4ccccc4F)n3)CC2)c2cnccc21 | -8.51% | -7.47% | -1.74% | -9.12% | 3.16% | 1.4% | -8.76% | – | – | – | – | – | –
3 | COc1ccc(NS(=O)(=O)c2sc3ccc(Cl)cc3c2C)cc1N1CCNCC1 | 16% | 1.51% | -3.94% | -6.55% | 12% | 18% | -3.02% | – | – | – | – | – | –
4 | C[C@@H](O[C@H]1OCCN(Cc2n[nH]c(=O)[nH]2)[C@H]1c1ccc(F)cc1)c1cc(C(F)(F)F)cc(C(F)(F)F)c1 | 5.88% | 8.5% | -1.01% | -7.13% | -5.17% | 0.716% | -3.75% | – | – | – | – | – | –
5 | N#Cc1ccc(Cn2ccc(NC(=O)Cc3ccc(C4(C(F)(F)F)CC4)cc3)n2)nc1 | 4.9% | -3.66% | 17.1% | -2.87% | -0.24% | -8.44% | -0.478% | – | – | – | – | – | –
6 | CN(C(=O)Cc1ccc(Cl)c(Cl)c1)C(CN1CCCC1)c1cccc(OCC(=O)O)c1 (stereo unspecified) | -0.5% | -9.22% | 13.7% | -6.71% | -2.65% | -1.52% | -7.78% | – | – | – | – | – | –
7 | CC(=O)c1ccc2c(c1)[C@@H]1C=CC[C@@H]1[C@H](c1cc3c(cc1Br)OCO3)N2 | 1.72% | 9.25% | 11.4% | 2.12% | 5.25% | 13.5% | -3.58% | – | – | – | – | – | –
8 | O=c1c2cccn2c2ccccc2n1CCCN1CCC(c2ccc(Cl)cc2)CC1 | 10.5% | 7.75% | 6.32% | -2.48% | 5.73% | 2.78% | -8.09% | – | – | – | – | – | –
9 | C[C@H](Cc1cc2c(c(C(N)=O)c1)N(CCCO)CC2)NCCOc1ccccc1OCC(F)(F)F | -4.21% | -1.48% | -1.01% | -6.28% | 1.13% | 2.34% | -9.87% | – | – | – | – | – | –
10 | S=C(NCCCc1c[nH]cn1)NCCCN(Cc1ccc(Cl)c(Cl)c1)c1ccc(Br)cn1 | -8.51% and -1.24% | -7.72% and 0.265% | 7.05% | -8.08% and 0.522% | 0.354% | -1.74% | -7.82% and -8.52% | – | – | – | – | – | –
11 | CCNC1(C(N)=O)CCN(c2ncnc3c2nc(-c2ccccc2Cl)n3-c2ccc(Cl)cc2)CC1 | 1.13% | 3.76% | 17.3% | -3.75% | 12.2% | 11.7% | -6.19% | – | – | – | – | – | –
12 | CN(C)S(=O)(=O)c1ccc(NC(=S)N2CCC(C(O)(c3ccccc3)c3ccccc3)CC2)cc1 | -0.797% | 0.265% | 16.6% | -3.65% | 3.26% | -1.66% | -7.47% | – | – | – | – | – | –
13 | CN(C)C(=O)C(CCN1CCC(O)(c2ccc(Cl)cc2)CC1)(c1ccccc1)c1ccccc1 | 7.8% | 7.75% | 28.3% | -5.28% | -1.44% | 5.3% | -5.39% | – | – | – | – | – | –
14 | OC1(c2ccc(Cl)cc2)CCN(Cc2c[nH]c3ccccc23)CC1 | -5.1% | 5.51% | 7.05% | -9.04% | -1.92% | 17.2% | -8.06% | – | – | – | – | – | –
15 | COc1cc(OC)c(NC(=O)c2ccc(Cc3cc4c(cc3C)C(C)(C)CCC4(C)C)o2)c(OC)c1 | 7.51% | 14.7% | 19.5% | 2.66% | -2.6% | 1.84% | -5.24% | – | – | – | – | – | –
16 | CN(c1ncccc1CNc1ccnc(-c2nc3c(F)c(Cl)ccc3[nH]2)n1)S(C)(=O)=O | 1.59% | -8.38% | 9.15% | -6.69% | 9.82% | 35.5% | -1.37% | – | – | – | – | – | –
17 | CC(C)(C)c1cc(C(C)(C)C)c(NC(=O)c2c[nH]c3ccccc3c2=O)cc1O | 1.34% | 5.25% | 14.6% | -6.32% | 6.2% | – | 1.6% | – | – | – | – | – | –
18 | Cc1onc(O)c1CC(N)C(=O)O (stereo unspecified) | -4.58% | -2.64% | -3.56% | -2.69% | -3.23% | 5.29% | -3.91% | – | – | – | – | – | –
19 | N=C(N)NCCC[C@@H](NC(=O)C(c1ccccc1)c1ccccc1)C(=O)NCc1ccc(CNC(N)=O)cc1 | 11.1% | -2.13% | 11.3% | -4.9% | 0.0989% | – | -1.81% | – | – | – | – | – | –
20 | CC1=C2C[C@H]3[C@@H](CC=C4C[C@@H](O)CC[C@@]43C)[C@@H]2CC[C@]12O[C@@H]1C[C@H](C)CN[C@H]1[C@H]2C | -3.61% | 1.26% | -6.14% | -3.73% | 2.68% | 5.99% | -9.72% | – | – | – | – | – | –
21 | Cc1c(P(=S)(c2ccccc2)c2ccccc2)n2ccccc2[n+]1C/C=C/c1ccccc1 | 11.1% | -6.97% | 23.9% | 1.08% | -6.48% | 35.9% | -7.24% | – | – | – | – | – | –
22 | Cn1cc(C2=C(c3cn(C4CCN(Cc5ccccn5)CC4)c4ccccc34)C(=O)NC2=O)c2ccccc21 | – | – | – | – | – | – | – | -7.52% | -6.23% | 2.88% | -2.56% | 6.08% | -3.81%
